What was measured:
[1] = system: Trypanosoma brucei rhodesiense; experiment: Antitrypanosomal activity against Trypanosoma brucei rhodesiense STIB 900 after 72 hrs by microplate alamar blue assay; type: functional, organism-based; details: STIB 900, 72 h
[2] = Selectivity index, Ratio of IC50 for L6 cells to IC50 for Trypanosoma brucei rhodesiense STIB 9; type: functional
L6 = experiment: Cytotoxicity against rat L6 cells after 72 hrs by microplate alamar blue assay; type: cell-based; details: L6, 72 h
Plasmodium falciparum = experiment: Antiplasmodial activity against chloroquine and pyrimethamine-resistant Plasmodium falciparum K1 after 48 hrs; type: functional, organism-based; details: K1, 48 h
[3] = Selectivity index, Ratio of IC50 for L6 cells to IC50 for Plasmodium falciparum K1; type: functional

| SMILES | IC50 [1] [nM] | Ratio IC50 [2] | IC50 (L6) [nM] | IC50 (Plasmodium falciparum) [nM] | Ratio IC50 [3] |
| --- | --- | --- | --- | --- | --- |
| CN(C)C12CCNC([C@H](c3ccccc3)C1)[C@H](c1ccccc1)C2 | 600 | – | – | – | – |
| CCOC(=O)CN1CCC2(N(C)C)CC(c3ccc(Cl)cc3)C1C(c1ccc(Cl)cc1)C2 (racemic) | 1780 | 2.88 | 5120 | 700 | 7.31 |
| CN(C)C12CCNC(C(c3ccc(C(F)(F)F)cc3)C1)C(c1ccc(C(F)(F)F)cc1)C2 (racemic) | 80 | 118 | 9440 | 850 | 11.11 |
| CN(C)C12CCNC(C(c3ccc(Br)cc3)C1)C(c1ccc(Br)cc1)C2 (racemic) | 87 | 103.9 | 9030 | 340 | 26.56 |
| COc1ccc(C2CC3(N(C)C)CCNC2C(c2ccc(OC)cc2)C3)cc1 (racemic) | 670 | 174.7 | 117000 | 2690 | 43.52 |
| NCCN1CCC2(N3CCCCC3)CC(c3ccc(Cl)cc3)C1C(c1ccc(Cl)cc1)C2 (racemic) | 76 | 44.34 | 3370 | 150 | 22.47 |
| CN(C)C12CCN(CC(N)=O)C(C(c3ccc(Cl)cc3)C1)C(c1ccc(Cl)cc1)C2 (racemic) | 910 | 28.07 | 25500 | 1110 | 23.01 |
| Clc1ccc(C2CC3(N4CCCC4)CCNC2C(c2ccc(Cl)c(Cl)c2)C3)cc1Cl (racemic) | 150 | 45.8 | 6870 | 280 | 24.54 |
| NC(=O)CN1CCC2(N3CCCCC3)CC(c3ccc(Cl)cc3)C1C(c1ccc(Cl)cc1)C2 (racemic) | 990 | 24 | 23800 | 1570 | 15.13 |
| CN(C)C12CCN(CCN)C(C(c3ccc(Cl)cc3)C1)C(c1ccc(Cl)cc1)C2 (racemic) | 500 | 20.44 | 10200 | 900 | 11.36 |
| CCOC(=O)CN1CCC2(N3CCCCC3)CC(c3ccc(Cl)cc3)C1C(c1ccc(Cl)cc1)C2 (racemic) | 2190 | 5.97 | 13100 | 1010 | 12.94 |
| Clc1ccc(C2CC3(N4CCCCC4)CCNC2C(c2ccc(Cl)c(Cl)c2)C3)cc1Cl (racemic) | 160 | 55.44 | 8870 | 540 | 16.43 |
| CN(C)C12CCNC(C(c3cccc4ccccc34)C1)C(c1cccc3ccccc13)C2 (racemic) | 110 | 58.82 | 6470 | 480 | 13.48 |
| NC(=O)CN1CCC2(N3CCCC3)CC(c3ccc(Cl)cc3)C1C(c1ccc(Cl)cc1)C2 (racemic) | 760 | 31.45 | 23900 | 830 | 28.8 |
| Cc1ccc(C2CC3(N(C)C)CCNC2C(c2ccc(C)cc2)C3)cc1 (racemic) | 120 | 337.2 | 40500 | 450 | 89.91 |
| CN(C)C12CCNC(C(c3ccc(F)cc3)C1)C(c1ccc(F)cc1)C2 (racemic) | 440 | 422.7 | 186000 | 890 | 209 |
| OCCN1CCC2(N3CCCCC3)CC(c3ccc(Cl)cc3)C1C(c1ccc(Cl)cc1)C2 (racemic) | 670 | 14.46 | 9690 | 700 | 13.84 |
| CN(C)C12CCNC(C(c3ccc(Cl)c(Cl)c3)C1)C(c1ccc(Cl)c(Cl)c1)C2 (racemic) | 90 | 71.56 | 6440 | 400 | 16.1 |
| NCCN1CCC2(N3CCCC3)CC(c3ccc(Cl)cc3)C1C(c1ccc(Cl)cc1)C2 (racemic) | 210 | 22.14 | 4650 | 320 | 14.53 |
| C[C@@H]1CC[C@H]2[C@@H](C)C(=O)O[C@@H]3O[C@@]4(C)CC[C@@H]1[C@]32OO4 [ARTEMISININ] | – | – | – | 6.4 | – |
